Data reported in patent publication US20090142281A1, “Composition Comprising A Coupled Enzyme System” (priority 2005, published 2009).
Where two headings read alike, the source gives them in different places.

Experiments:
Type in all cases: biochemical
Sorbitol oxidase [1] = target: T1, Sorbitol oxidase (Streptomyces coelicolor, UniProt Q9ZBU1)
T1 construct: made in house; host or cells: Streptomyces lividans g3s3 (vector pKB105, PSMM-SOX)
Description: Sorbitol oxidase obtained using the methods described in Example 3-4, was tested for finding its activity with various polyol substrates. All substrates used in the assay were 55 mM in 100 mM phosphate buffer pH 7.0 at 25° C. The relative activity using sorbitol as (++++++=100%) is shown below in Table 1. In addition to these substrates, it is contemplated that other substrates, including, but not limited to glycerol, will find use in the present invention.

Sorbitol oxidase [2] = target: T1, Sorbitol oxidase; test: Relative activity of sorbitol oxidase on xylitol and sorbitol (ABTS assay); conditions: rate of H2O2 production, substrate in excess, same amount of enzyme
Description: The commonly used horse radish peroxidase dye substrate ABTS was incorporated into an assay, measuring the production of H2O2 produced by HOX or GOX respectively. ABTS serves as a chromogenic substrate for peroxidase. Peroxidase in combination with H2O2 facilitates the electron transport from the chromogenic dye, which is oxidised to an intensely green/blue compound.
An assay mixture contained 266 μl sorbitol (Sigma P-5504, 0.055 M in 0.1 M sodium phosphate buffer, pH 6.3), (or alternative substrate, e.g. xylitol), 12 μl 2,2′-Azino-bis(3-ethylbenzothiozoline-6-Sulfonic acid) (ABTS) (Sigma A-9941, 5 mg/ml aqueous solution), 12 μl peroxidase (POD) (Sigma P-6782, 0.1 mg/ml in 0.1 M sodium phosphate buffer, pH 6.3) and 10 μl enzyme (SOX or HOX) aqueous solution.
The assay is performed at 25° C.
The incubation was started by the addition of glucose. The absorbance was monitored at 405 nm in an ELISA reader. A standard curve, based on varying concentrations of H2O2, was used for calculation of enzyme activity according to the definition above.
The purpose was to measure the difference in activity of sorbitol oxidase on D-sorbitol and D-xylitol. The ABTS assay was used as described previously to measure the rate of H2O2 production when both D-sorbitol and D-xylitol was in excess. The same amount of enzyme, as prepared in the previous examples was used in both cases. […]

[3] = In gel overlay activity assay (PMS/NBT) using sorbitol as substrate; conditions: native gel
Description: b) In gel overlay activity assay (PMS/NBT) using sorbitol as substrate.
The cell lysates were fractionated on a native gel that was further tested in an in-gel overlay activity assay using sorbitol as the substrate and an assay based on the PMS mediated reduction of NBT. […] The PMS/NBT is a diagnostic assay for flavoproteins where PMS=phenazine methosulfate is a redox mediator which is reduced by reduced FAD.

[4] = system: hydrogen peroxide production; test: Synergy between the two enzymes: initial velocity of H2O2 production in 300 uL ABTS assay; conditions: further enzyme at 1× to 3000× excess over polyol oxidase; especially at dosages greater than 1×
Description: In the example below the amounts of enzyme are given as unit amounts.
A unit of HOX is the amount of enzyme that produced 1 umol H202/min when substrates are in excess.
A unit of GOX is the amount of enzyme that produced 1 umol H202/min when substrates are in excess.
A unit of SOX is the amount of enzyme that produced 1 umol H202/min when substrates are in excess.
The generated sugar will be the limiting factor for the secondary enzyme. As noted above the activity is given as a percentage value of SOX catalysing D-sorbitol when both D-sorbitol and oxygen is in excess.
Initial velocities were measured over 5 minutes in 300 uL ABTS assay (as described previously). The production of rate of hydrogen peroxide production was extrapolated from a standard curve. The measured activity, shown in FIG. 3 and FIG. 4 are given as a percentage value. 100% is defined as the rate of hydrogen peroxide production by sorbitol oxidase alone, when the substrates D-sorbitol and oxygen is in excess (Linear velocity curves)

[5] = substrate 55 mM in 100 mM phosphate buffer pH 7.0 at 25° C., relative to sorbitol

T1 sequence (Q9ZBU1 other isoform, or with tags, fused parts or gaps): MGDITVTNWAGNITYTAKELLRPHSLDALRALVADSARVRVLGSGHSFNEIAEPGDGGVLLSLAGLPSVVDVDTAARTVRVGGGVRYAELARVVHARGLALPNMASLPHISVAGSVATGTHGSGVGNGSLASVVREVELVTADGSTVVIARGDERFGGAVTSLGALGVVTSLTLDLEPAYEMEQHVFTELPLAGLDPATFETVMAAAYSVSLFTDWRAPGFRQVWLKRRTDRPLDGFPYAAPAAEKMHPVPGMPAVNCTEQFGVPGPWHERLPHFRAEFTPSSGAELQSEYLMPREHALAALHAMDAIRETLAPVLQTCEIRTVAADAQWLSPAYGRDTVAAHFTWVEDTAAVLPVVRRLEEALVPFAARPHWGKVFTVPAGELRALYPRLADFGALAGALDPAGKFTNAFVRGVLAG

| Compound | Relative Activity (+, 0) (Sorbitol oxidase [1]; [5]) | Relative activity% (Sorbitol oxidase [2]) [%] | Relative Activity (+, 0) (Sorbitol oxidase [1]; pH 7) | other results |
| --- | --- | --- | --- | --- |
| OC[C@@H](O)[C@@H](O)[C@H](O)[C@H](O)CO [D-Mannitol] | + + + |  |  |  |
| OC[C@@H](O)[C@@H](O)[C@H](O)[C@@H](O)CO [D-Sorbitol] | + + + + + + | 100 |  |  |
| OC[C@@H](O)[C@H](O)[C@@H](O)CO [D-Xylitol] |  | 47.6 | + + + + |  |
| OCCO [Ethylene glycol] |  |  | 0 |  |
| CC(O)CO (stereo not drawn) [Propylene glycol] | 0 |  |  |  |
| glucose oxidase [reference compound] |  |  |  | activity towards sorbitol (stained band) [3]: not active towards sorbitol; synergy in initial velocity of H2O2 production (FIG. 4) [4]: dramatic synergy |
